Data reported in patent US20150267232A1, “IN VIVO AND IN VITRO CARBENE INSERTION AND NITRENE TRANSFER REACTIONS CATALYZED BY HEME ENZYMES” (California Institute of Technology, priority 2012, published 2015).

Legend:
[1] = P450/hemin reactions with azide 5 under anaerobic conditions (C—H amination); assay type: biochemical
Excerpt: Benzosultam 6, arylsulfonamide 7 (*), and dimer 12 (#) are defined in FIG. 10. […] For instance, B1SYN (e.g., P450BM3 with 23 amino acid substitutions) catalyzed over 30 TTN for form the benzosultam.
Small-Scale Amination Reactions Under Anaerobic Conditions. […]

[2] = Intramolecular carbene C—H insertion, substrate 4.1a; assay type: biochemical
[3] = cat. loading 1 mol %, reductant None

With hemin the “TTN arylsulfonamide 7” value ([1]; 1 mol %, 2 mM NADPH) was 1, the “TTN benzosultam 6” value ([1]; 1 mol %, 2 mM NADPH) was 0 and the “arylsulfonamide 7 (% yield)” value ([1]; 1 mol %, 2 mM NADPH) was “(1) %”. The “TTN arylsulfonamide 7” value ([1]; 1 mol %, 2 mM Na2S2O4) was 5, the “TTN benzosultam 6” value ([1]; 1 mol %, 2 mM Na2S2O4) was 0 and the “arylsulfonamide 7 (% yield)” value ([1]; 1 mol %, 2 mM Na2S2O4) was “(5) %”. For the same substance, the “TTN arylsulfonamide 7” value ([1]; 1 mol %, 10 mM Na2S2O4) was 58, the “TTN benzosultam 6” value ([1]; 1 mol %, 10 mM Na2S2O4) was 0 and the “arylsulfonamide 7 (% yield)” value ([1]; 1 mol %, 10 mM Na2S2O4) was “(58) %”. The “TTN arylsulfonamide 7” value ([1]; 10 mol %, 2 mM Na2S2O4) was 1, the “TTN benzosultam 6” value ([1]; 10 mol %, 2 mM Na2S2O4) was 0 and the “arylsulfonamide 7 (% yield)” value ([1]; 10 mol %, 2 mM Na2S2O4) was “(10) %”. The “TTN arylsulfonamide 7” value ([1]; 10 mol %, 10 mM Na2S2O4) was 6, the “TTN benzosultam 6” value ([1]; 10 mol %, 10 mM Na2S2O4) was 0 and the “arylsulfonamide 7 (% yield)” value ([1]; 10 mol %, 10 mM Na2S2O4) was “(60) %”. For the same substance, the “TTN arylsulfonamide 7” value [1, 3] was 0, the “TTN benzosultam 6” value [1, 3] was 0 and the Yield % ([2]; 10 mM 4.1a, 5% hemin, 10 mM Na2S2O4, product 4.2a) was 0%. The “lactone formation via C—H bond insertion” value ([2]; substrates 4.1a and 4.1b, 10 μM variant or hemin at 5% catalyst loading, 16 h) was “not catalyzed”.
